Test system: 233499-124-R-J3-PDC spheroids with HUVEC/MSC, viability
Experiment: Anticancer human tumor 233499-124-R-J3-PDC patient-derived colon adenocarcinoma cell line growth inhibition [PI3K]
Settings: for IC50: curve of first compound; for viability, T/C: stronger effect = lower value
In short: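 Spheroid viability read-out. Co-cultures contained the tumor line plus HUVEC and human MSCs. Each agent was paired with a PI3K inhibitor (inavolisib, alpelisib, duvelisib, copanlisib) across half-log dilutions starting at clinical Cmax, or at 10 microM when Cmax was unknown.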

[1] = second compound 0.0316 µM, first compound 0.0316 µM
[2] = second compound 0.0316 µM, first compound 0.1 µM
[3] = second compound 0.0316 µM, first compound 0.316 µM
[4] = second compound 0.0316 µM, first compound 1 µM
[5] = second compound 0.0316 µM, first compound 3.16 µM
[6] = second compound 0.0316 µM, first compound 10 µM
[7] = second compound 0.1 µM, first compound 0.0316 µM
[8] = second compound 0.1 µM, first compound 0.1 µM
[9] = second compound 0.1 µM, first compound 0.316 µM
[10] = second compound 0.1 µM, first compound 1 µM
[11] = second compound 0.1 µM, first compound 3.16 µM
[12] = second compound 0.1 µM, first compound 10 µM
[13] = second compound 0.316 µM, first compound 0.0316 µM
[14] = second compound 0.316 µM, first compound 0.1 µM
[15] = second compound 0.316 µM, first compound 0.316 µM
[16] = second compound 0.316 µM, first compound 1 µM
[17] = second compound 0.316 µM, first compound 3.16 µM
[18] = second compound 0.316 µM, first compound 10 µM
[19] = second compound 1 µM, first compound 0.0316 µM
[20] = second compound 1 µM, first compound 0.1 µM
[21] = second compound 1 µM, first compound 0.316 µM
[22] = second compound 1 µM, first compound 1 µM
[23] = second compound 1 µM, first compound 3.16 µM
[24] = second compound 1 µM, first compound 10 µM
[25] = second compound 3.16 µM, first compound 0.0316 µM
[26] = second compound 3.16 µM, first compound 0.1 µM
[27] = second compound 3.16 µM, first compound 0.316 µM
[28] = second compound 3.16 µM, first compound 1 µM
[29] = second compound 3.16 µM, first compound 3.16 µM
[30] = second compound 3.16 µM, first compound 10 µM
[31] = second compound 10 µM, first compound 0.0316 µM
[32] = second compound 10 µM, first compound 0.1 µM
[33] = second compound 10 µM, first compound 0.316 µM
[34] = second compound 10 µM, first compound 1 µM
[35] = second compound 10 µM, first compound 3.16 µM
[36] = second compound 10 µM, first compound 10 µM
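Further: spheroids exposed to agents for seven days before readout.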
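Wherever viability, T/C is given: percent viability relative to DMSO vehicle control taken as 100%.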

C#Cc1c(F)ccc2cc(O)cc(-c3ncc4c(N5CC6CCC(C5)N6)nc(OCC56CCCN5CC(F)C6)nc4c3F)c12 (stereo not drawn) + CC(Nc1ncnc2nc[nH]c12)c1cc2cccc(Cl)c2c(=O)n1-c1ccccc1
IC50 (second compound 0.0316 µM): > 10000 nM
IC50 (second compound 0.1 µM): > 10000 nM
IC50 (second compound 0.316 µM): > 10000 nM
IC50 (second compound 1 µM): > 10000 nM
IC50 (second compound 3.16 µM): > 10000 nM
IC50 (second compound 10 µM): > 10000 nM
viability, T/C [1]: 95%
viability, T/C [2]: 101%
viability, T/C [3]: 82.5%
viability, T/C [4]: 90.7%
viability, T/C [5]: 85.2%
viability, T/C [6]: 75.5%
viability, T/C [7]: 113%
viability, T/C [8]: 114%
viability, T/C [9]: 81.7%
viability, T/C [10]: 94.7%
viability, T/C [11]: 84%
viability, T/C [12]: 73.2%
viability, T/C [13]: 112%
viability, T/C [14]: 92.1%
viability, T/C [15]: 105%
viability, T/C [16]: 90.6%
viability, T/C [17]: 87.9%
viability, T/C [18]: 69.7%
viability, T/C [19]: 102%
viability, T/C [20]: 102%
viability, T/C [21]: 108%
viability, T/C [22]: 95.5%
viability, T/C [23]: 109%
viability, T/C [24]: 90.6%
viability, T/C [25]: 110%
viability, T/C [26]: 94.2%
viability, T/C [27]: 101%
viability, T/C [28]: 77.9%
viability, T/C [29]: 87.5%
viability, T/C [30]: 55.9%
viability, T/C [31]: 92.8%
viability, T/C [32]: 89.4%
viability, T/C [33]: 87.5%
viability, T/C [34]: 84.7%
viability, T/C [35]: 108%
viability, T/C [36]: 84.7%

CC(Cn1ccc(-c2ccc(C#N)c(Cl)c2)n1)NC(=O)c1cc(C(C)O)[nH]n1 (stereo not drawn) + CC(Nc1ncnc2nc[nH]c12)c1cc2cccc(Cl)c2c(=O)n1-c1ccccc1
IC50 (second compound 0.0316 µM): > 10000 nM
IC50 (second compound 0.1 µM): > 10000 nM
IC50 (second compound 0.316 µM): > 10000 nM
IC50 (second compound 1 µM): > 10000 nM
IC50 (second compound 3.16 µM): > 10000 nM
IC50 (second compound 10 µM): > 10000 nM
viability, T/C [1]: 100%
viability, T/C [2]: 84.7%
viability, T/C [3]: 93.2%
viability, T/C [4]: 91.9%
viability, T/C [5]: 109%
viability, T/C [6]: 75%
viability, T/C [7]: 98.2%
viability, T/C [8]: 91.6%
viability, T/C [9]: 81.5%
viability, T/C [10]: 94.6%
viability, T/C [11]: 68.8%
viability, T/C [12]: 92.2%
viability, T/C [13]: 87.3%
viability, T/C [14]: 101%
viability, T/C [15]: 73.3%
viability, T/C [16]: 99.6%
viability, T/C [17]: 100%
viability, T/C [18]: 101%
viability, T/C [19]: 96.2%
viability, T/C [20]: 95.8%
viability, T/C [21]: 81.4%
viability, T/C [22]: 110%
viability, T/C [23]: 92.9%
viability, T/C [24]: 90.6%
viability, T/C [25]: 91.6%
viability, T/C [26]: 96.5%
viability, T/C [27]: 78.1%
viability, T/C [28]: 88.7%
viability, T/C [29]: 78.3%
viability, T/C [30]: 86.5%
viability, T/C [31]: 86.1%
viability, T/C [32]: 96.3%
viability, T/C [33]: 83.2%
viability, T/C [34]: 102%
viability, T/C [35]: 75.5%
viability, T/C [36]: 93.3%

CC1(C)CCC(Nc2ncc(C(F)(F)F)c(-c3c[nH]c4c(P(C)(C)=O)c(C#N)ccc34)n2)CN1 (stereo not drawn) + CC(Nc1ncnc2nc[nH]c12)c1cc2cccc(Cl)c2c(=O)n1-c1ccccc1
IC50 (second compound 0.0316 µM): 202 nM
IC50 (second compound 0.1 µM): 210 nM
IC50 (second compound 0.316 µM): 90.3 nM
IC50 (second compound 1 µM): 170 nM
IC50 (second compound 3.16 µM): 273 nM
IC50 (second compound 10 µM): < 31.6 nM
viability, T/C [1]: 88.8%
viability, T/C [2]: 52.3%
viability, T/C [3]: 40%
viability, T/C [4]: 50.8%
viability, T/C [5]: 25.2%
viability, T/C [6]: 20.1%
viability, T/C [7]: 93%
viability, T/C [8]: 50.4%
viability, T/C [9]: 49%
viability, T/C [10]: 30.9%
viability, T/C [11]: 29.8%
viability, T/C [12]: 6.77%
viability, T/C [13]: 66.7%
viability, T/C [14]: 46%
viability, T/C [15]: 30.7%
viability, T/C [16]: 32.2%
viability, T/C [17]: 34%
viability, T/C [18]: 10.2%
viability, T/C [19]: 81.8%
viability, T/C [20]: 50.5%
viability, T/C [21]: 51%
viability, T/C [22]: 28.2%
viability, T/C [23]: 22.7%
viability, T/C [24]: 22.6%
viability, T/C [25]: 75.9%
viability, T/C [26]: 67.2%
viability, T/C [27]: 46.8%
viability, T/C [28]: 27.5%
viability, T/C [29]: 23.2%
viability, T/C [30]: 4.38%
viability, T/C [31]: 52.3%
viability, T/C [32]: 36.4%
viability, T/C [33]: 49.6%
viability, T/C [34]: 20.7%
viability, T/C [35]: 38.8%
viability, T/C [36]: 6.16%

Cn1cnc2c(F)c(Nc3ccc(Br)cc3Cl)c(C(=O)NOCCO)cc21 + COc1c(OCCCN2CCOCC2)ccc2c3n(c(=NC(=O)c4cnc(N)nc4)nc12)CCN3
IC50 (second compound 0.00316 µM): 378 nM
IC50 (second compound 0.01 µM): 760 nM
IC50 (second compound 0.0316 µM): 131 nM
IC50 (second compound 0.1 µM): 54 nM
IC50 (second compound 0.316 µM): < 9.49 nM
IC50 (second compound 1 µM): < 9.49 nM
viability, T/C (second compound 0.00316 µM, first compound 0.00949 µM): 55.7%
viability, T/C (second compound 0.00316 µM, first compound 0.03 µM): 73.5%
viability, T/C (second compound 0.00316 µM, first compound 0.0949 µM): 76.5%
viability, T/C (second compound 0.00316 µM, first compound 0.3 µM): 54.9%
viability, T/C (second compound 0.00316 µM, first compound 0.949 µM): 31.2%
viability, T/C (second compound 0.00316 µM, first compound 3 µM): 29.5%
viability, T/C (second compound 0.01 µM, first compound 0.00949 µM): 75.2%
viability, T/C (second compound 0.01 µM, first compound 0.03 µM): 80.8%
viability, T/C (second compound 0.01 µM, first compound 0.0949 µM): 75.5%
viability, T/C (second compound 0.01 µM, first compound 0.3 µM): 56%
viability, T/C (second compound 0.01 µM, first compound 0.949 µM): 50.3%
viability, T/C (second compound 0.01 µM, first compound 3 µM): 24.6%
viability, T/C (second compound 0.0316 µM, first compound 0.00949 µM): 68.3%
viability, T/C (second compound 0.0316 µM, first compound 0.03 µM): 78.9%
viability, T/C (second compound 0.0316 µM, first compound 0.0949 µM): 54.1%
viability, T/C (second compound 0.0316 µM, first compound 0.3 µM): 34.2%
viability, T/C (second compound 0.0316 µM, first compound 0.949 µM): 30.4%
viability, T/C (second compound 0.0316 µM, first compound 3 µM): 20.1%
viability, T/C (second compound 0.1 µM, first compound 0.00949 µM): 71.5%
viability, T/C (second compound 0.1 µM, first compound 0.03 µM): 67.5%
viability, T/C (second compound 0.1 µM, first compound 0.0949 µM): 33.1%
viability, T/C (second compound 0.1 µM, first compound 0.3 µM): 28.2%
viability, T/C (second compound 0.1 µM, first compound 0.949 µM): 19.1%
viability, T/C (second compound 0.1 µM, first compound 3 µM): 17.9%
viability, T/C (second compound 0.316 µM, first compound 0.00949 µM): 41.3%
viability, T/C (second compound 0.316 µM, first compound 0.03 µM): 34.2%
viability, T/C (second compound 0.316 µM, first compound 0.0949 µM): 13.1%
viability, T/C (second compound 0.316 µM, first compound 0.3 µM): 10.2%
viability, T/C (second compound 0.316 µM, first compound 0.949 µM): 5.14%
viability, T/C (second compound 0.316 µM, first compound 3 µM): 6.9%
viability, T/C (second compound 1 µM, first compound 0.00949 µM): 2.93%
viability, T/C (second compound 1 µM, first compound 0.03 µM): 7.86%
viability, T/C (second compound 1 µM, first compound 0.0949 µM): 4.9%
viability, T/C (second compound 1 µM, first compound 0.3 µM): 0.96%
viability, T/C (second compound 1 µM, first compound 0.949 µM): 1.18%
viability, T/C (second compound 1 µM, first compound 3 µM): 1.01%

— PubChem BioAssay AID1963984 (Molecular Pharmacology Branch, DTP, NCI, 2024)
